The values that follow come from patent US20210372995A1, “BIOMIMETIC PLATFORMS TO MODEL VASCULAR PATHOPHYSIOLOGY, DIAGNOSTICS, AND THERAPY” (The Johns Hopkins University, priority 2017, published 2021).

As a reminder, the half-life is the time in which the quantity being followed falls by half.

Data set [1] deals with bovine coronary microvascular endothelial cells. The conditions noted are these: 1 μM, 5 hours; cited from earlier work.
A further data set deals with hTERT HAEC. The experiment in a line: NO production by hTERT HAEC in 3D scaffolds (conditioned media, Seivers NO analyzer). It is filed as cell-based, human. The conditions noted are these: 1 μM, 30 minutes; HAEC growing 2 months in 3D scaffolds. The procedure:
Endothelial cells have many functions including the production of nitric oxide (NO). NO is a vasoactive agent important for modulating the vascular smooth muscle tone (Davidge, S. T., et al., Circ Res 1995, 77 (2), 274-83). The confluent cells growing for 2 months in the tubes were tested for NO production to determine endothelial function and viability. To qualitatively assess the NO production, 50 μL of the conditioned-media was analyzed using Seivers NO analyzer. FIGS. 13A-13C show NO production by hTERT HAEC with and without calcium ionophore stimulation. A 7- to 35-fold increase of NO was observed when HAEC growing in 3D scaffolds was stimulated with 1 μM A23187 calcium ionophore for 30 minutes. Others have reported twofold NO increase after 60-minute incubation of HAEC in 1 μM ionomycin grown on well plates (Cosentino, F., et al., Circulation 1997, 96 (1), 25-8). Using bovine coronary microvascular endothelial cells, a 3-fold increase was observed when stimulated with 1 μM A23187 calcium ionophore for 5 hours (Davidge, S. T., et al., Circ Res 1995, 77 (2), 274-83). […] There is difficulty in direct comparison of results with reported observations due to differences in methodology, analysis, and cell types. […] The higher increase in NO production warrants further investigation if 3D geometry affects HAEC NO production. […]

Another data set has as its system fibroblasts. The conditions noted are these: 100 µM; cited from earlier work.
For data set [2] the following is noted: cited from earlier work.
The test system of a further data set is HAEC. The conditions noted are these: 1 μM, 60-minute incubation; HAEC on well plates; cited from earlier work.
Another data set deals with HPASMC. The experiment in a line: Contractility of aligned HPASMC on microwrinkled PDMS. It is filed as cell-based, human. The conditions noted are these: 1 μM, 10 minutes. The procedure: HPASMC cultivated on microwrinkled PDMS were treated with angiotensin ii (1 μM) and serial phase images were taken (1, 3, 10 minutes, from left to right) to assess cell contraction. […] Scale bar=50 μm.
A 6 μm PDMS film was stretched by 20% with a uniaxial stretching system, followed by exposure to oxygen plasma (Plasma Etcher Inc.) at 80 W for 60 minutes to generate wrinkles (FIG. 1A-FIG. 1C and FIG. 16). […] To test the contractility of aligned HPASMC, HPASMC were exposed to angiotensin II (1 μM; Sigma Aldrich, St. Louis, Mo.) for 10 minutes. […] A more quantitative measurement of SMC contraction is employed as described in the Experimental Design section.

Data set [3] concerns human coronary artery endothelial cells. The settings on record: 20 ng/mL; cited from earlier work.

In the case of `CNc1ccc2oc(C[C@H]3O[C@@]4(CC[C@H]3C)O[C@H]([C@H](C)C(=O)c3ccc[nH]3)[C@H](C)C[C@H]4C)nc2c1C(=O)O` [A23187], the NO increase in data set [1] is 3 fold. Also, the “increase of NO” value in the data set with hTERT HAEC is on record as 7- to 35 fold.
Consider `COc1ccccc1Oc1c(NS(=O)(=O)c2ccc(C(C)(C)C)cc2)nc(-c2ncccn2)nc1OCCO` [Bosentan], for which, in the data set with fibroblasts, the proliferation in fibroblasts result is given as “altered” and the “smooth muscle alpha actin expression in fibroblasts” value was “altered”.
As to `CCCCC[C@H](O)/C=C/[C@@H]1[C@H]2C/C(=C/CCCC(=O)O)O[C@H]2C[C@H]1O` [Prostacyclin], the half-life in data set [2] was 3 to 5 min.
Turning to `C[C@H](CCC(=O)O)C[C@H](C)C[C@H](C)C(=O)/C=C(\O)[C@H](C)C[C@H](C)C/C=C/[C@@H](C)[C@@H](O)[C@@H](C)[C@@H](O)C[C@@H]1CC[C@@](C)([C@H]2CC[C@@](C)([C@@H](C)O)O2)O1` [ionomycin], in the data set with HAEC, the NO increase result is “twofold”.
Consider “angiotensin II (DRVYIHPF; Angiotensin-2; UniProt P01019 25-32, looked up) [contractile agent (Sigma Aldrich)]”, for which the “cell contraction of aligned HPASMC” value in the data set on HPASMC is reported as “time-dependent contraction”.
Take hepatocyte growth factor: the NO increase result in data set [3] is listed as “twofold”.
